# Source: article PMC11513923, “Discovery of ZLC491 as a Potent, Selective, and Orally Bioavailable CDK12/13 PROTAC Degrader” (Journal of Medicinal Chemistry, 2024)
# Legend:
# [1] = system: MDA-MB-231 xenograft tumors; assay: Histology of tumors (H&E staining, TUNEL IHC) in MDA-MB-231 xenograft model; format: in vivo, mouse; conditions: 100 and 200 mg/kg orally, 5 days; particularly at 200 mg/kg
# Description: (§1) We further performed pharmacodynamic studies of ZLC491 in an MDA-MB-231 xenografted mouse model. ZLC491 was orally administrated at two doses of 100 and 200 mg/kg, respectively, for 5 consecutive days (Figure 7A). Tumor tissues were harvested on day 5 and subjected to Western blot analysis. […] Additionally, we conducted further histological analysis on the tumors following ZLC491 treatment.
# (§2) Figure 7 ZLC491 depleted CDK12 and CDK13 proteins in vivo. (A) Study design of pharmacodynamics assessment on target engagement of ZLC491 in the MDA-MB-231 xenograft model; (B) immunoblotting of CDK12, CDK13, and α-tubulin in tissue lysate of MDA-MB-231 xenografts model after ZLC491 treatment; (C) protein levels were quantified using ImageJ and normalized to corresponding α-tubulin, then plotted using GraphPad Prism 8.0; (D) immunohistochemistry (IHC) analysis on the tumors by H&E staining and TUNEL assays; (E) TUNEL histology scores were analyzed and plotted by GraphPad Prism 8.0; (F) body weight change during the treatment.
# H&E staining of formalin-fixed paraffin embedded (FFPE) tissue sections was performed using Leica Autostainer XL as per manufacturer’s protocol. […] Cells which were intensely stained for DAB pigment were considered to be apoptotic and they were quantified as numbers per 10 high power field (hpf, 400× magnification).
# [2] = system: NME2; assay: TMT-labeled quantitative proteomics in MDA-MB-231 cells; format: cell-based, Homo sapiens; conditions: 2 μM ZLC491 vs DMSO, 8 h
# Description: (§3) Figure 5 ZLC491 degraded CDK12/13 with high selectivity. (A) Global proteomic analysis of ZLC491 in MDA-MB-231 cells after 8 h treatment of DMSO or 2 μM ZLC491; (B) mass-spec quantification of CDKs changes; (C) immunoblotting of target protein degradation in samples for proteomic analysis.
# (§4) MDA-MB-231 cells were seeded at 8 × 10^5 cells in 6 cm dishes 24 h before treating with 2 μM ZLC491 or DMSO in quadruplicate or triplicate for 8 h. Cell lysates were prepared by washing cells twice with cold PBS and adding 180 μL lysis buffer (10 mM HEPES, pH 7.0, 1% (w/v) SDS, 2 mM MgCl·6H2O supplemented with 0.1% BeyoZonase (Beyotime)) per dish. Samples were quantified using a micro-BCA protein assay kit (Thermo Fisher Scientific) and 600 μg of each sample was processed and digested using the filter aided sample preparation (FASP) method followed by alkylation with iodoacetamide and digestion with trypsin. The samples were then desalted using Oasis HLB C18 SPE cartridge column (Waters, WAT094225). The peptides were lyophilized and reconstituted, then 25 μg peptides of each sample were labeled with TMT 11-plex Isobaric Label Reagent Set (Thermo Fisher Scientific) as the manufacturer’s instructions. After labeling, the peptides from the 11 samples were pooled together. The pooled TMT 11-plex sample was fractionated using high pH reverse-phase chromatography on an XBridge peptide BEH column (130 Å, 3.5 μm, 2.1 × 150 mm, Waters) on an Ultimate 3000 HPLC system (Thermo Scientific/Dionex). […]
# (§5) The fractions were analyzed sequentially on an Orbitrap Fusion Lumos Mass Spectrometer (Thermo Scientific) coupled to a NanoLC-1200 UHPLC system (Thermo Scientific) with C18 capillary column. […] MS3 precursor were fragmented by HCD and analyzed with Orbitrap at NCE 65, AGC 1E5, resolution 60000.
# (§6) The raw MS data files for all 11 fractions were searched against the Uniprot-Human-Canonical database by Proteome Discoverer 2.0 for protein identification and TMT reporter ion quantitation. […]
# [3] = system: B3GAT3; assay: as above; format: cell-based, Homo sapiens; conditions: 2 μM ZLC491 vs DMSO, 8 h
# Description: as §3, §4, §5, §6
# [4] = system: ARG2; assay: as above; format: cell-based, Homo sapiens; conditions: 2 μM ZLC491 vs DMSO, 8 h
# Description: as §3, §4, §5, §6
# [5] = Tolerability and body weight in MDA-MB-231 xenografted mice; format: in vivo; conditions: 100 and 200 mg/kg orally, 5 days
# Description: as §1, §2
# The pharmacodynamics experiments were performed under an approved animal protocol by the Institutional Animal Care & Use Committee of the University of Michigan. Six- to eight-week-old CB17SCID female (Charles River Laboratory) mice were in a regular SPF housing room prior to cell injection. […]
compound,measurement,setting,value
"N#Cc1ccc(N[C@H]2CC[C@H](N(C(=O)NCc3ccccc3)c3ccc(N4CCN(C5CCN(c6cc7c(cc6F)C(=O)N(C6CCC(=O)NC6=O)C7=O)CC5)CC4)cc3)CC2)nc1 (stereo partly drawn) [ZLC491, 3-Benzyl-1-((1r,4r)-4-((5-cyanopyridin-2-yl)amino)cyclohexyl)-1-(4-(4-(1-(2-(2,6-dioxopiperidin-3-yl)-6-fluoro-1,3-dioxoisoindolin-5-yl)piperidin-4-yl)piperazin-1-yl)phenyl)urea]","apoptosis in tumors (H&E staining, TUNEL IHC)",[1],marked apoptosis and increased TUNEL signaling
same,FC_4-91 (NME2),[2],1.1277
same,FC_4-91 (B3GAT3),[3],1.982
same,FC_4-91 (ARG2),[4],1.14
same,body weight change during the treatment,[5],absence of body weight loss
same,tolerability,[5],well tolerated
